According to patent US4820695A, “C-20-dihydro-deoxy-(cyclic amino)-derivatives of macrolide antibiotics” (priority 1987, dated 1989):
Converted amounts (≈) assume the structure as drawn. Like-named read-outs stand apart in the source and are kept apart here.

What was measured:
[1] = test system: Streptococcus pyogenes C203; test: MIC, standard agar-dilution assay (Table IX); assay type: cell-based; settings: read-out: MIC
Escherichia coli N10 = test: MIC, standard agar-dilution assay (Table IX); assay type: cell-based; settings: read-out: MIC
Pasteurella multocida [2] = test: Pasteurella infection in one-day-old chicks, medicated drinking water (Table XIII); assay type: in vivo; settings: Administered in the available drinking water at 2 g/gal
Method: Many of the C-20 modified derivatives of this invention have also shown in vivo antibacterial activity against infections induced by gram-negative bacteria. Tables XII and XIII summarize the results of tests in which illustrative compounds were evaluated against a Pasteurella infection in one-day-old chicks. The compounds were administered parenterally or orally after challenge of the chicks with Pasteurella multocida (0.1 ml of a 10^-4 dilution of a twenty-hour tryptose broth culture of an avian P. multocida given subcutaneously). In these tests, unless indicated otherwise, all non-medicated infected chicks died within 24 hours of Pasteurella challenge. In the tests summarized in Table XII, the compounds were administered by subcutaneous injection at a dosage of 30 mg/kg, 1 and 4 hours post-challenge of the chicks with P. multocida. In the tests summarized in Table XIII the compounds were administered in medicated drinking water (at a level of 2 g/gal) available from 4 to 20 hours prior to challenge of the chicks with P. multocida and during the 3 -day test period.
^a Administered in the available drinking water at a concentration of […]

[3] = test system: Streptococcus pyogenes C203; test: ED50 in mice experimentally infected with S. pyogenes C203 (Table XI); assay type: in vivo; settings: Streptococcus pyogenes, doses given 1 and 4 hours postinfection, read-out: ED50
How it was run: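 Protective ED50 (mg/kg × 2) was determined as the dose sparing half the animals. Test compound was given twice, at 1 and 4 hours after experimental S. pyogenes C203 infection of mice.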

Klebsiella X26 = test: MIC, standard agar-dilution assay (Table IX); assay type: cell-based; settings: read-out: MIC
[4] = test system: Staphylococcus aureus X400; test: MIC, standard agar-dilution assay (Table IX); assay type: cell-based; settings: Staphylococcus aureus X400, Methicillin-resistant strain, read-out: MIC
[5] = test system: Staphylococcus epidermidis EPI1; test: MIC, standard agar-dilution assay (Table IX); assay type: cell-based; settings: Staphylococcus epidermidis EPI1; agar-dilution; read-out: MIC
[6] = test system: Haemophilus influenzae 76; test: MIC, standard agar-dilution assay (Table IX); assay type: cell-based; settings: Haemophilus influenzae 76, Ampicillin-resistant strain, read-out: MIC
Staphyloccus aureus X1.1 = test: MIC, standard agar-dilution assay (Table IX); assay type: cell-based, Staphylococcus aureus; settings: Staphylococcus aureus, read-out: MIC
Escherichia coli EC14 = test: MIC, standard agar-dilution assay (Table IX); assay type: cell-based; settings: read-out: MIC
[7] = test system: Staphylococcus aureus S13E; test: MIC, standard agar-dilution assay (Table IX); assay type: cell-based; settings: Staphylococcus aureus, S13E
[8] = test system: Mycoplasma hyopneumoniae S5972; test: MIC, broth-dilution microtiter test (Table X); assay type: cell-based; settings: Mesomycoplasma hyopneumoniae, read-out: MIC
From the text: (§1) The MIC's in Table X were obtained using conventional broth-dilution microtiter tests.

[9] = test system: Pasteurella hemolytica 22C; test: MIC, broth-dilution microtiter test (Table X); assay type: cell-based; settings: read-out: MIC
From the text: as §1

Mycoplasma synoviae 40A = test: MIC, broth-dilution microtiter test (Table X); assay type: cell-based; settings: Mycoplasmopsis synoviae, read-out: MIC
From the text: as §1

[10] = test system: Pasteurella multocida 60A; test: MIC, broth-dilution microtiter test (Table X); assay type: cell-based; settings: Avian isolate, read-out: MIC
From the text: as §1

Mycoplasma hyorhinis 29E = test: MIC, broth-dilution microtiter test (Table X); assay type: cell-based; settings: read-out: MIC
From the text: as §1

[11] = test system: Mycoplasma gallisepticum 29C; test: MIC, broth-dilution microtiter test (Table X); assay type: cell-based; settings: Mycoplasmoides gallisepticum, read-out: MIC
From the text: as §1

Streptococcus sp. 19F = test: MIC, broth-dilution microtiter test (Table X); assay type: cell-based; settings: read-out: MIC
From the text: as §1

Staphylococcus aureus = test: MIC, broth-dilution microtiter test (Table X); assay type: cell-based; settings: read-out: MIC
From the text: as §1

[12] = test system: Pasteurella multocida 17E; test: MIC, broth-dilution microtiter test (Table X); assay type: cell-based; settings: Bovine isolate, read-out: MIC
From the text: as §1

[13] = test system: Streptococcus Group D X66; test: MIC, standard agar-dilution assay (Table IX); assay type: cell-based; settings: read-out: MIC
[14] = test system: Haemophilus influenzae C.L.; test: MIC, standard agar-dilution assay (Table IX); assay type: cell-based; settings: Ampicillin-sensitive strain, read-out: MIC
[15] = Titratable groups in 66% aqueous DMF (Tables XIV-XVI); assay type: physicochemical
From the text: ^c Run in 66% aqueous DMF
^d Run in 66% aqueous DMF

Pasteurella multocida [16] = test: Pasteurella infection in one-day-old chicks, subcutaneous administration (Table XII); assay type: in vivo; settings: Administered subcutaneously, 30 mg/kg × 2, 1 and 4 hours post-challenge
How it was run: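 Treatment was 30 mg/kg s.c., given twice (1 and 4 h after infection). The infection itself was induced in day-old chicks by s.c. injection of 0.1 ml of avian Pasteurella multocida culture (20-h tryptose broth, diluted 10^-4).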

[17] = test system: Staphylococcus aureus V41; test: MIC, standard agar-dilution assay (Table IX); assay type: cell-based; settings: Staphylococcus aureus V41, Penicillin-resistant strain, read-out: MIC
[18] = test system: Staphylococcus epidermidis 222; test: MIC, standard agar-dilution assay (Table IX); assay type: cell-based; settings: read-out: MIC
[19] = test system: Streptococcus Group D 2041; test: MIC, standard agar-dilution assay (Table IX); assay type: cell-based; settings: GROUPD2041, read-out: MIC
Escherichia coli TEM = test: MIC, standard agar-dilution assay (Table IX); assay type: cell-based; settings: read-out: MIC
[20] = test system: Streptococcus pneumoniae Park I; test: MIC, standard agar-dilution assay (Table IX); assay type: cell-based; settings: Streptococcus pneumoniae Park I; agar-dilution; read-out: MIC
[21] = Titratable groups (first value)

Compound	MIC [1]	MIC (Escherichia coli N10)	Number of Deaths/Number Treated (Pasteurella multocida [2])	ED50 ([3]; C203, Oral)	ED50 ([3]; C203, sc, Subcutaneous)	MIC (Klebsiella X26)	MIC [4]	MIC [5]	MIC [6]	MIC (Staphyloccus aureus X1.1)	MIC (Escherichia coli EC14)	MIC [7]	MIC [8]	MIC [9]	MIC (Mycoplasma synoviae 40A)	MIC [10]	MIC (Mycoplasma hyorhinis 29E)	MIC [11]	MIC (Streptococcus sp. 19F)	MIC (Staphylococcus aureus)	other results
CCC1OC(=O)CC(O)C(C)C(OC2OC(C)C(O)C(N(C)C)C2O)C(CCN2CCCCCCCC2)CC(C)C(=O)C=CC(C)=CC1COC1OC(C)C(O)C(OC)C1OC (stereo not shown) [Compound D7, 20-DH-DO-20-(octahydro-1H-azonin-1-yl)desmycosin]	0.06 µg/mL (≈ 0.0679 µM)	64 µg/mL (≈ 72.5 µM)	2/10	12 mg/kg	1.6 mg/kg	> 128 µg/mL	0.5 µg/mL (≈ 0.566 µM)	0.5 µg/mL (≈ 0.566 µM)	16 µg/mL (≈ 18.1 µM)	0.5 µg/mL (≈ 0.566 µM)	64 µg/mL (≈ 72.5 µM)	0.5 µg/mL (≈ 0.566 µM)	1.56 µg/mL (≈ 1.77 µM)	3.12 µg/mL (≈ 3.53 µM)	0.39 µg/mL (≈ 0.442 µM)	6.25 µg/mL (≈ 7.08 µM)	25 µg/mL (≈ 28.3 µM)	0.39 µg/mL (≈ 0.442 µM)	3.12 µg/mL (≈ 3.53 µM)	1.56 µg/mL (≈ 1.77 µM)	MIC [12]: 6.25 µg/mL (≈ 7.08 µM); MIC [13]: 4 µg/mL (≈ 4.53 µM); MIC [14]: 16 µg/mL (≈ 18.1 µM); pKa ([15]; Titratable groups): 9; pKa [15, 21]: 7.9; Number of Deaths/Number Treated (Pasteurella multocida [16]): 3/10; MIC [17]: 0.5 µg/mL (≈ 0.566 µM); MIC [18]: 0.25 µg/mL (≈ 0.283 µM); MIC [19]: 8 µg/mL (≈ 9.06 µM); MIC (Escherichia coli TEM): 16 µg/mL (≈ 18.1 µM); MIC [20]: 0.5 µg/mL (≈ 0.566 µM)
CCC1OC(=O)CC(O)C(C)C(OC2OC(C)C(O)C(N(C)C)C2O)C(CCN2CCCCCC2)CC(C)C(=O)C=CC(C)=CC1COC1OC(C)C(O)C(OC)C1OC (stereo not shown) [Compound D5, 20-DH-DO-20-(Hexahydroazepin-1-yl)desmycosin]	0.5 µg/mL (≈ 0.585 µM)	128 µg/mL (≈ 150 µM)	2/10	50 mg/kg	1.3 mg/kg	> 128 µg/mL	1 µg/mL (≈ 1.17 µM)	0.5 µg/mL (≈ 0.585 µM)	128 µg/mL (≈ 150 µM)	0.5 µg/mL (≈ 0.585 µM)	4 µg/mL (≈ 4.68 µM)	0.25 µg/mL (≈ 0.292 µM)	1.56 µg/mL (≈ 1.82 µM)	1.56 µg/mL (≈ 1.82 µM)	0.39 µg/mL (≈ 0.456 µM)	3.12 µg/mL (≈ 3.65 µM)	50 µg/mL (≈ 58.5 µM)	1.56 µg/mL (≈ 1.82 µM)	3.12 µg/mL (≈ 3.65 µM)	1.56 µg/mL (≈ 1.82 µM)	MIC [12]: 3.12 µg/mL (≈ 3.65 µM); MIC [13]: 8 µg/mL (≈ 9.36 µM); MIC [14]: 16 µg/mL (≈ 18.7 µM); pKa ([15]; Titratable groups): 9.6; pKa [15, 21]: 7.9; Number of Deaths/Number Treated (Pasteurella multocida [16]): 0/10; MIC [17]: 0.5 µg/mL (≈ 0.585 µM); MIC [18]: 0.12 µg/mL (≈ 0.14 µM); MIC [19]: 8 µg/mL (≈ 9.36 µM); MIC (Escherichia coli TEM): 8 µg/mL (≈ 9.36 µM); MIC [20]: 0.5 µg/mL (≈ 0.585 µM)
CCC1OC(=O)CC(O)C(C)C(OC2OC(C)C(O)C(N(C)C)C2O)C(CCN2CCCCC2)CC(C)C(=O)C=CC(C)=CC1COC1OC(C)C(O)C(OC)C1OC (stereo not shown) [Compound D2, 20-DH-DO-20-(piperidin-1-yl)desmycosin]	0.25 µg/mL (≈ 0.297 µM)	> 128 µg/mL	5/10	50 mg/kg	0.9 mg/kg	16 µg/mL (≈ 19 µM)	1 µg/mL (≈ 1.19 µM)	1 µg/mL (≈ 1.19 µM)	16 µg/mL (≈ 19 µM)	0.5 µg/mL (≈ 0.594 µM)	> 128 µg/mL	0.5 µg/mL (≈ 0.594 µM)	12.5 µg/mL (≈ 14.9 µM)	3.12 µg/mL (≈ 3.71 µM)	0.78 µg/mL (≈ 0.927 µM)	6.25 µg/mL (≈ 7.43 µM)	> 50 µg/mL	3.12 µg/mL (≈ 3.71 µM)	6.25 µg/mL (≈ 7.43 µM)	0.78 µg/mL (≈ 0.927 µM)	MIC [12]: 25 µg/mL (≈ 29.7 µM); MIC [13]: 16 µg/mL (≈ 19 µM); MIC [14]: 16 µg/mL (≈ 19 µM); pKa ([15]; Titratable groups): 9.1; pKa [15, 21]: 7.8; Number of Deaths/Number Treated (Pasteurella multocida [16]): 0/10; MIC [17]: 0.5 µg/mL (≈ 0.594 µM); MIC [18]: 0.5 µg/mL (≈ 0.594 µM); MIC [19]: 16 µg/mL (≈ 19 µM); MIC (Escherichia coli TEM): 16 µg/mL (≈ 19 µM); MIC [20]: 0.25 µg/mL (≈ 0.297 µM)
CCC1OC(=O)CC(O)C(C)C(OC2OC(C)C(O)C(N(C)C)C2O)C(CCN2CCCC23CCCCC3)CC(C)C(=O)C=CC(C)=CC1COC1OC(C)C(O)C(OC)C1OC (stereo not shown) [Compound D19, 20-DH-DO-20-[1-Azaspiro[4.5]decan-1-yl]desmycosin]	0.5 µg/mL (≈ 0.559 µM)	128 µg/mL (≈ 143 µM)	3/10	46 mg/kg	2.9 mg/kg	32 µg/mL (≈ 35.7 µM)	1 µg/mL (≈ 1.12 µM)	1 µg/mL (≈ 1.12 µM)	16 µg/mL (≈ 17.9 µM)	1 µg/mL (≈ 1.12 µM)	128 µg/mL (≈ 143 µM)	1 µg/mL (≈ 1.12 µM)	3.12 µg/mL (≈ 3.49 µM)	3.12 µg/mL (≈ 3.49 µM)	0.39 µg/mL (≈ 0.436 µM)	3.12 µg/mL (≈ 3.49 µM)	> 50 µg/mL	1.56 µg/mL (≈ 1.74 µM)	3.12 µg/mL (≈ 3.49 µM)	0.78 µg/mL (≈ 0.871 µM)	MIC [12]: 3.12 µg/mL (≈ 3.49 µM); MIC [13]: 16 µg/mL (≈ 17.9 µM); MIC [14]: 16 µg/mL (≈ 17.9 µM); pKa ([15]; Titratable groups): 9.8; pKa [15, 21]: 7.9; Number of Deaths/Number Treated (Pasteurella multocida [16]): 0/10; MIC [17]: 1 µg/mL (≈ 1.12 µM); MIC [18]: 0.25 µg/mL (≈ 0.279 µM); MIC [19]: 16 µg/mL (≈ 17.9 µM); MIC (Escherichia coli TEM): 32 µg/mL (≈ 35.7 µM); MIC [20]: 0.25 µg/mL (≈ 0.279 µM)
